{
  "source": "paper PMC11928863",
  "about": "(Computational and Structural Biotechnology Journal, 2025)",
  "molecular_target": "T1, CD2068 (Clostridioides difficile, UniProt Q188D7)",
  "T1 sequence (Q188D7 1-541)": "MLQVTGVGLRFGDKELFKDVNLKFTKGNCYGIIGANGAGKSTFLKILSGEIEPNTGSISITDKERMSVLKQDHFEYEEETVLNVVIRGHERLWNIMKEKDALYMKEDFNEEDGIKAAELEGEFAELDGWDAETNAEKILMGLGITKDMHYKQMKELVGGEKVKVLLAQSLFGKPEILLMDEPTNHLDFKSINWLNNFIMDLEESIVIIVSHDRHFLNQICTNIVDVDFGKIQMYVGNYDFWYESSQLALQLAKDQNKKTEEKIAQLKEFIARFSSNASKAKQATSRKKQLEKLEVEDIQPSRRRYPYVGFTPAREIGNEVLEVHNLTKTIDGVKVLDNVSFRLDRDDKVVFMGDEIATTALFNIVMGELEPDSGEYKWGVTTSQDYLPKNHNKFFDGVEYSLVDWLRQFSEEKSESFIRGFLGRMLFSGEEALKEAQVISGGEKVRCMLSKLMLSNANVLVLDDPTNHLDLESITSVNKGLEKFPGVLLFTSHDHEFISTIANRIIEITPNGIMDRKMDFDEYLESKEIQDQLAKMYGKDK",
  "assay": "malachite green ATPase assay, purified CD2068 with […] ATP",
  "format": "biochemical",
  "data": [
    {"smiles": "Nc1ncnc2c1ncn2[C@@H]1O[C@H](COP(=O)(O)OP(=O)(O)OP(=O)(O)O)[C@@H](O)[C@H]1O", "note": "[ATP]", "values": [
      {"measurement": "malachite green ATPase assay, purified CD2068 with 1 mM ATP", "value": 52.52, "unit": "nmol/min/mg"}
    ]}
  ]
}
